In patent US7947470B2, “Polynucleotides encoding hOCTN1 polypeptide” (Chugai Seiyaku Kabushiki Kaisha, priority 1997, dated 2011):
Starred links: 1 amine or outer side, 2 acyl side, 3 side chain; linkers in the order of their positions; H or OH if unused. Positions of bridges follow the written chain, without caps; N, C: chain ends. Non-standard residues stand in square brackets, D forms with d. Residues, ends and D or L forms follow the SMILES beside them. Chains are numbered I, II in the order given. Actinocin(9to1) = Cc1c2oc3c(C)ccc(C(=O)[*:1])c3nc-2c(C(=O)[*:2])c(N)c1=O; NMeV = CN[C@H](C(=O)O)C(C)C; Sar = CNCC(=O)O

Experiments:
Assay type in all cases: cell-based
human OCTN1 [1] = target: T1, human OCTN1 (Homo sapiens, UniProt Q9H015, I306T/L503F); assay: Transport experiment using Xenopus oocytes injected with human OCTN1 cRNA; settings: 25° C., 1 h, compared with water-injected oocytes
T1 construct: cDNA containing the entire ORF which was cleaved out with SmaI and EcoRI was integrated; expressed in transfected cells; host or cells: Xenopus oocytes injected with 15 ng cRNA transcribed in vitro from pcDNA3/OCTN1
T1 sequence (Q9H015 1-551 I306T/L503F): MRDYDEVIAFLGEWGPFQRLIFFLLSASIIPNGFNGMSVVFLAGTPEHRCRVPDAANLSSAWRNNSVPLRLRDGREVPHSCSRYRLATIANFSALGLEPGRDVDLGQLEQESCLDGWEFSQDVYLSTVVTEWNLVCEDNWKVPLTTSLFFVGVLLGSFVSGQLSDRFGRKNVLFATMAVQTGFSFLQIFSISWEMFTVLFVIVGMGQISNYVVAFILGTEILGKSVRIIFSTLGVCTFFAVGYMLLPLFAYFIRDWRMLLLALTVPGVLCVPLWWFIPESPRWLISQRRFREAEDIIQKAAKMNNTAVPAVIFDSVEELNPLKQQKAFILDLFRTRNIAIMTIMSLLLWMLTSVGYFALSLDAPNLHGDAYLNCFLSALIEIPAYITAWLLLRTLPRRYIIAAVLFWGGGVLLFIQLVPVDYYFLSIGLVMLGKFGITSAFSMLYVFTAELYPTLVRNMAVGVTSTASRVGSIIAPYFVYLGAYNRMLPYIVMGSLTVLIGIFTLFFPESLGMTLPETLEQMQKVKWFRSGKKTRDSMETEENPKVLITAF
Description: cRNA was synthesized in vitro using T7 RNA polymerase with pcDNA3/OCTN1 as a template. This cRNA was diluted to the concentration of 0.3 ng/nl, and its 50-nl (15 ng) aliquot was injected into a single oocyte. As a control, 50 nl of distilled water was injected. These oocytes were cultured for 3 days, and then used for the transport experiment. After being preincubated in an uptake buffer (0.05% Tween 80, 100 mM NaCl, 2 mM KCl, 1 mM CaCl2, 1 mM MgCl2, and 10 mM Hepes pH 7.4) at 25° C. for 20 min, the oocytes were transferred to the uptake buffer containing 0.5 ml of labeled substrate to initiate the uptake. After the incubation at 25° C. for 1 h, the oocytes were washed in the ice-cold uptake buffer three times to terminate the reaction. The oocytes were solubilized in 5% SDS and mixed with Cleasol I (a cocktail for liquid scintillation counter) (3 ml) to determine the radioactivity. The radioactivity of the uptake buffer which contained the labeled compound at the time of incubation (external solution) (10 μl) was also similarly measured. The ratio of the radioactivity (dpm value) in the oocytes to that (dpm value) in the external solution was used as the uptake activity.

human OCTN1 [2] = target: T1, human OCTN1; assay: Transport experiment in HEK293 cells transfected with human OCTN1 (pcDNA3/OCTN1); settings: for uptake of labeled substrate into human OCTN1-transfected cells: HEK293 cells, compared with Mock or untreated cells, 37° C.
Description: The human fetal-kidney-derived cell strain, HEK 293 cells were transfected with the plasmid pcDNA3/OCTN1 and pcDNA3 vector containing no insert as a control by the calcium phosphate method. First, the plasmid DNA (10 μg), a Hepes buffer solution (137 mM NaCl, 5 mM KCl, 0.7 mM Na2HPO4, 6 mM Dextrose, and 21 mM Hepes pH 7.1) (1 ml), and 2 M CaCl2 (62.5 μl) were combined and allowed to stand at room temperature for 30 min or more to form calcium phosphate coprecipitates. After cells were plated on 10-cm plates at 1.5×10^6 cells per plate and cultured for 24 h, the calcium phosphate coprecipitates were added thereto, and the cells were further cultured for 24 h. Then, plates were washed with phosphate buffered saline (PBS), and the cells were further cultured for 24 h after the addition of fresh culture medium.
(§1) Transport experiment was performed using cells transfected with the plasmid DNA or untreated cells according to the following procedures. Cells were detached from plates using a rubber policeman, suspended in a transport buffer (containing 125 mM NaCl, 4.8 mM KCl, 5.6 mM (+)-glucose, 1.2 mM CaCl2, 1.2 mM KH2PO4, 1.2 mM MgSO4, and 25 mM Hepes pH 7.4), and pre-incubated for 20 min. An appropriate amount of each labeled substrate ([^14C]TEA (tetraethylammonium) (NEN), [^3H]carnitine (L-carnitine hydrochloride) (Amersham), [^3H]PCG (benzylpenicillin) (Amersham), [^3H]quinidine (ARC), or [^3H]pyrilamine (mepyramine) (Amersham)) was then added to the cell suspension, and the resulting mixture was incubated at 37° C. for a predetermined period of time. Incubated cells were overlaid on a silicon layer prepared by layering a mixture of silicon oil and liquid paraffin (specific gravity 1.022) on a 3 M KCl layer, and separated by centrifugation. Radioactivity of cells was measured to determine the into-the-cell transport activity. In this case, 1×10^6 cells were used as one point of cells. HEK 293 cells were cultured in Dulbecco's MEM containing 10% fetal calf serum (FCS) in an atmosphere of 5% carbon dioxide at 37° C.
First, the transporter capacity was measured in the cells transfected with pcDNA3/OCTN1 and untreated cells using TEA as a substrate (FIG. 5). […] Next, effects of the addition of unlabeled TEA on the labeled substrate uptake in this system (cold inhibition) was examined (FIG. 6). […] Next, to obtain the Km (Michaelis constant) value of human OCTNL to TEA, the uptake of ^14C-TEA with various concentrations was measured (FIG. 7). […] Next, the transport capacity of human OCTN1 for other substrate than TEA was examined (FIG. 8).

human OCTN2 = target: T2, human OCTN2 (Homo sapiens, UniProt O76082); assay: Transport experiment in HEK cells transfected with human OCTN2 (pcDNA3/OCTN2); settings: for transport by human OCTN2: HEK cells transfected with pcDNA3/OCTN2, compared with Mock and pcDNA3/OCTN1
T2 construct: clones from both fragments were ligated at the PstI site in the overlapping region; expressed in transfected cells
T2 sequence (O76082 1-557): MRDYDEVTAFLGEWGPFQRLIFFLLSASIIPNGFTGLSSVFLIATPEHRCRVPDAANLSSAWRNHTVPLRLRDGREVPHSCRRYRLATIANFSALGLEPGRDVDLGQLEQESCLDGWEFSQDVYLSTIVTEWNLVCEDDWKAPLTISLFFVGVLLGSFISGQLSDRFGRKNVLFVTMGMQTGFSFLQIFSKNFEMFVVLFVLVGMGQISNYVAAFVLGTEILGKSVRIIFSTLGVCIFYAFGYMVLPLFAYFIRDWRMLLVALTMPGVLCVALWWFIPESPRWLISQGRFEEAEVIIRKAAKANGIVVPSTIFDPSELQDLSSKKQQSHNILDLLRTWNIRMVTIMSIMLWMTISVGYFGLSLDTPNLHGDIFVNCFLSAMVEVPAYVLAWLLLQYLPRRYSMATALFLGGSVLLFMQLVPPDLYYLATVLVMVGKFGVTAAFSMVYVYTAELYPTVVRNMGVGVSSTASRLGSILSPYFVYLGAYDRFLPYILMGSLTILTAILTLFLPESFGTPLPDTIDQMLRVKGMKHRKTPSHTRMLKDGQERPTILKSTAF
Description: as §1
HEK cells were transfected with pcDNA3/OCTN2, the pcDNA3 vector containing no insert (Mock), or pcDNA3/OCTN1 by the method described in Example 6 to perform transport experiments.
Next, Na^+ dependence of human OCTN2-mediated carnitine transport was examined using a transport buffer in which Na^+ was replaced with K+(FIG. 12).

Compound | uptake activity / transport capacity of human OCTN1 cRNA-injected oocytes (human OCTN1 [1]) | uptake of labeled substrate into human OCTN1-transfected cells (human OCTN1 [2]) | other results
C=C[C@H]1C[N@@]2CC[C@H]1C[C@@H]2[C@@H](O)c1ccnc2ccc(OC)cc12 [quinidine] | expresses the transport capacity | significant increase in the uptake | 
COc1cccc2c1C(=O)c1c(O)c3c(c(O)c1C2=O)C[C@@](O)(C(C)=O)C[C@@H]3O[C@H]1C[C@H](N)[C@H](O)[C@H](C)O1 [daunomycin] | has the activity to transport |  | 
CC[C@]1(O)C[C@@H]2CN(CCc3c([nH]c4ccccc34)[C@@](C(=O)OC)(c3cc4c(cc3OC)N(C)[C@H]3[C@@](O)(C(=O)OC)[C@H](OC(C)=O)[C@]5(CC)C=CCN6CC[C@]43[C@@H]65)C2)C1 [vinblastine] | has the activity to transport |  | 
Cc1c2oc3c(C)ccc(C(=O)N[C@@H]4C(=O)N[C@H](C(C)C)C(=O)N5CCC[C@H]5C(=O)N(C)CC(=O)N(C)[C@@H](C(C)C)C(=O)O[C@@H]4C)c3nc-2c(C(=O)N[C@@H]2C(=O)N[C@H](C(C)C)C(=O)N3CCC[C@H]3C(=O)N(C)CC(=O)N(C)[C@@H](C(C)C)C(=O)O[C@@H]2C)c(N)c1=O [actinomycin D] (I: T[dV]P[Sar][NMeV] / II: T[dV]P[Sar][NMeV]; ester I:1-I:C, II:1-II:C; linker I:N-II:N via Actinocin(9to1)) | has the activity to transport |  | 
COc1ccc(CN(CCN(C)C)c2ccccn2)cc1 [pyrilamine] | expresses the transport capacity | significant increase in the uptake | 
CC[N+](CC)(CC)CC [TEA, tetraethylammonium] | expresses the transport capacity | reaction time-dependent TEA uptake into the human OCTN1-transfectd cells was clearly observed | transport by human OCTN1 (comparison with OCTN2) (human OCTN1 [2]; HEK cells transfected with pcDNA3/OCTN1, Example 8): efficiently transported by human OCTN1; maximal velocity, Vmax (human OCTN1 [2]; Lineweaver-Burk plot of net uptake (OCTN1-transfected minus Mock HEK293 cells), 14C-TEA): 6.68±0.34 nmol/3 min/mg; Km (human OCTN1 [2]; Lineweaver-Burk plot of net uptake (OCTN1-transfected minus Mock HEK293 cells), 14C-TEA, read-out: Km (Michaelis constant) value of human OCTN1 to TEA): 440 ± 40 µM; effect of unlabeled (cold) TEA on labeled substrate uptake (cold inhibition) (human OCTN1 [2]; human OCTN1-transfected HEK293 cells): decrease in the apparent uptake of the labeled substrate was clearly seen depending on the concentration of cold TEA added; transport by human OCTN2 (human OCTN2): hardly transported
CC1(C)S[C@@H]2[C@H](NC(=O)Cc3ccccc3)C(=O)N2[C@H]1C(=O)O [PCG, benzylpenicillin] |  | no significant increase in the uptake | 
COc1cc([C@@H]2c3cc4c(cc3[C@@H](O[C@@H]3O[C@@H]5CO[C@@H](C)O[C@H]5[C@H](O)[C@H]3O)[C@H]3COC(=O)[C@H]23)OCO4)cc(OC)c1O [etoposide] | has the activity to transport |  | 
C[N+](C)(C)C[C@H](O)CC(=O)[O-].Cl [carnitine, L-carnitine hydrochloride] | expresses the transport capacity | significant increase in the uptake | transport by human OCTN2 (human OCTN2): high capacity to efficiently transport; carnitine transport activity of human OCTN2 in the absence of Na+ (human OCTN2; absence of Na+): no such activity; carnitine transport activity of human OCTN2 in the presence of Na+ (human OCTN2; presence of Na+): time-dependent carnitine transport activity; Na+ dependence of human OCTN2-mediated carnitine transport (human OCTN2; transport buffer in which Na+ was replaced with K+): completely depended on the presence of Na^+
